We go through three molecules from patent US8685984B2, “Methods for treating HCV” (AbbVie Inc., priority 2011, dated 2014).

This test deals with HCV genotype 1a replicon cell line. The experiment in a line: EC50 in HCV genotype 1a replicon cell line. The conditions noted are these: Hepatitis C virus, read-out: EC50 value for the HCV genotype 1a replicon cell line. The test is classed as cell-based. (Replicon systems follow genome replication, usually without infectious particles.)

As usually defined, the EC50 is the concentration needed to bring the measured effect to its halfway point. Take `Cc1cnc(C(=O)N[C@H]2CCCCC/C=C\[C@@H]3C[C@@]3(C(=O)NS(=O)(=O)C3CC3)NC(=O)[C@@H]3C[C@@H](Oc4nc5ccccc5c5ccccc45)CN3C2=O)cn1` [Compound 1, (2R,6S,13aS,14aR,16aS,Z)—N-(cyclopropylsulfonyl)-6-(5-methylpyrazine-2-carboxamido)-5,16-dioxo-2-(phenanthridin-6-yloxy)-1,2,3,5,6,7,8,9,10,11,13a,14,14a,15,16,16a-hexadecahydrocyclopropa[e]pyrrolo[1,2-a][1,4]diazacyclopentadecine-14a-carboxamide]: the 50% effective concentration (EC50) is 0.9 nM.

As to `COc1c(-c2ccc3cc(NS(C)(=O)=O)ccc3c2)cc(-n2ccc(=O)[nH]c2=O)cc1C(C)(C)C` [Compound 2, N-(6-(3-tert-butyl-5-(2,4-dioxo-3,4-dihydropyrimidin-1(2H)-yl)-2-methoxyphenyl)naphthalen-2-yl)methanesulfonamide], the EC50 is 7.7 nM.

Turning to `COC(=O)N[C@H](C(=O)N1CCC[C@H]1C(=O)Nc1ccc([C@@H]2CC[C@@H](c3ccc(NC(=O)[C@@H]4CCCN4C(=O)[C@@H](NC(=O)OC)C(C)C)cc3)N2c2ccc(C(C)(C)C)cc2)cc1)C(C)C` [Compound 4], the EC50 is 0.01 nM.
